The target in one series is T1, human AT2 receptor (Homo sapiens, UniProt P50052).
T1 construct: membranes prepared in house
T1 sequence (P50052 1-363): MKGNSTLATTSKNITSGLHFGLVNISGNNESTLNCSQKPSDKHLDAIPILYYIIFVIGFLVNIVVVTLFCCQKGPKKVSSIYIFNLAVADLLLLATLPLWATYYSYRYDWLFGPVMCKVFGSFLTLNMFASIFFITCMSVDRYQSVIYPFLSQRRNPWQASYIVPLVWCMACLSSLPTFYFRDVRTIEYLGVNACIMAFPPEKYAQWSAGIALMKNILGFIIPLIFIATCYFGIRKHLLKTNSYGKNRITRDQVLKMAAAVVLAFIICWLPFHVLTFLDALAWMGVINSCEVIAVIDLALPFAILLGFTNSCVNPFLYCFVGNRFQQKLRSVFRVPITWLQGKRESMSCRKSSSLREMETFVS
Nature of the series: AT2 receptor binding ([125I]CGP 42112A displacement, CHO-K1 membranes). The settings on record: [125I]CGP 42112A 0.05 nM, membranes of CHO-K1 cells expressing human AT2 receptor; Ki from IC50 by Cheng-Prussoff equation; read-out: Ki. From the text: Reagents were purchased from Sigma-Aldrich, unless otherwise specified. Dialyzed fetal bovine serum (FBS) was from Life Technologies (cat. no. 10073772). Valiscreen® human angiotensin AT2 receptor cell line (cat. no. ES-070-C), [^125I]CGP 42112A (cat. no. NEX324025UC) and MicroScint™ 40 (cat. no. 6013641) were purchased from PerkinElmer. CGP 42112A (cat. no. 2569) and PD 123,319 ditrifluoroacetate (cat. no. 1361) were from Tocris Biosciences.
• 1. Growth medium • EX-CELL® CHO DHFR^− medium • 10% FBS, dialysed • 1 mM sodium pyruvate • 2 mM L-glutamine • 2. Harvesting buffer • PBS • 2 mM EDTA • 3. Suspension buffer • 50 mM Tris-HCl, pH 7.4 • 10 mM EDTA • 4. Resuspension buffer • 50 mM Tris-HCl, pH 7.4 • 0.1 mM EDTA • 0.1% sucrose • 5. Binding assay buffer • 50 mM Tris-HCl, pH 7.4 • 5 mM MgCl2 • 1 mM EDTA • 0.1% gelatin • 6. Wash buffer • 50 mM Tris-HCl, pH 7.4 Procedure for Membrane Preparation • Valiscreen® CHO-K1 cells stably expressing the human AT2 receptor were cultured in growth medium. • Cells were seeded into T-175 flasks and grown to 70-80% confluence. • Medium was removed from confluent flasks and cells were washed with warm PBS. • Cells were harvested by incubating with harvesting buffer for 10 min at 37° C., and then transferred to a centrifuge tube on ice. • Cells were centrifuged at 200 g for 5 min at 4° C. • Cell pellets were homogenised in ice-cold suspension buffer. • Homogenates were centrifuged at 40,000 g for 15 min at 4° C. • Pellets were resuspended in ice-cold resuspension buffer and centrifuged at 40,000 g for 15 min at 4° C. • Final pellets were homogenised in ice-cold resuspension buffer. • Protein concentrations were determined by BCA assay method with BSA as standard. Compound Preparation
Compounds were prepared from 10 mM stock solutions in 100% DMSO. Dilutions were made using electronic multichannel pipettes.
• Compounds dilutions were prepared in 100% DMSO at 100× final assay concentration. • Compounds were diluted in 100% DMSO to the appropriate maximal concentration. • 30 μL compound was added to row A. • 21.6 μL of 100% DMSO was added to rows B-H. • Transfer 10 μL from row A into row B (half log dilution). • Transfer 10 μL from row B into row C (half log dilution). • Transfer 10 μL from row C into row D (half log dilution). • Transfer 10 μL from row D into row E (half log dilution). • Transfer 10 μL from row E into row F (half log dilution). • Transfer 10 μL from row F into row G (half log dilution). • Transfer 10 μL from row G into row H (half log dilution). Working Plate Preparation (96-Well Plate) • Compounds were diluted 10-fold in assay buffer. • 10 μL compound solution from dose plate was transferred to corresponding well of working plate. • 90 μL assay buffer was added to the wells of working plate. • Working solutions contained 10% DMSO in assay buffer (1% DMSO final assay concentration). Controls • Total binding (high control) was determined in the absence of unlabelled ligand. A solution of 10% DMSO in assay buffer was prepared. • Non-specific binding (low control) was determined in the presence of a vast excess (10 μM) of PD 123,319. 1 mM stock solution of PD 123,319 in water was diluted 10-fold with 10% DMSO in assay buffer. Assay Plate Preparation (96-Well Plate)
15 μL compound solution was transferred to duplicate wells of assay plate. 5 compounds were tested per plate. 15 μL control solutions were transferred to columns 1 and 12 of assay plate.

Series [1] in a line: Human hepatocyte stability assay. The settings on record: cryopreserved hepatocytes, 1 μM test compound, 0.5 million cells/mL, pH 7.4, 37° C., 60 min; for half-life at 1 μM: read-out: T½. The series is classed as in vitro ADME. The method, then:
A human hepatocyte (cryopreserved) incubation mixture containing, 0.5 million cells/mL and phosphate buffered saline (pH 7.4) was pre-incubated at 37° C. and the reaction then initiated by the addition of 1 μM test compound. The incubations were performed in duplicate. The final organic concentration was 1% (consisting of 90% acetonitrile and 10% DMSO). Positive control markers for Phase I and II metabolism were included. Samples were removed at 6 time-points over 60 min and each reaction terminated by the addition of methanol containing internal standard. After vortexing and centrifugation, the resultant supernatant was analysed by UPLC-MS.
Intrinsic clearance is calculated from the resulting concentration-time profile.
Where C(t) is the compound concentration at time t, C(0) is the starting concentration and k is the elimination rate constant.
The ln(concentration) vs time profile can be mathematically described by: ln C(t)=ln C(0)−kt
Where k represents the slope of the regression line.
Solving for k results in:
Once k is known, half-life (t½) can be calculated using: […]
Furthermore, CLint can be calculated by introducing the cell density ([cell]) in 10^6/ml: […]

The results in this text go back to patent publication US10065943B2, “Pyrrolidine derivatives as angiotensin II type 2 antagonists” (NOVARTIS AG, priority 2015, dated 2018).

Each structure is given as a SMILES string. Some results are limits rather than exact numbers.

With `C[C@@]1(C(=O)O)C[C@H](N2CCCOc3cc(F)c(F)cc32)CN1C(=O)C(c1ccccc1)c1ccccc1` [Compound 32, (2S,4S)-4-(7,8-Difluoro-3,4-dihydrobenzo[b][1,4]oxazepin-5(2H)-yl)-1-(2,2-diphenylacetyl)-2-methylpyrrolidine-2-carboxylic acid], the Ki on human AT2 receptor came to 3.7 nM. In addition, in series [1], the hepatocyte CLint at 1 μM was below 3 µL/min/1e6 cells and the half-life at 1 μM was above 7.67 h.
For `O=C(NS(=O)(=O)C1CC1)[C@@H]1C[C@H](N2CCCOc3cc(F)c(F)cc32)CN1C(=O)C(c1ccccc1)c1ccccc1` [Compound 36, (2S,4S)—N-(Cyclopropylsulfonyl)-4-(7,8-difluoro-3,4-dihydrobenzo[b][1,4]oxazepin-5(2H)-yl)-1-(2,2-diphenylacetyl)pyrrolidine-2-carboxamide] the same measures were 2.6 nM, below 3 µL/min/1e6 cells and above 7.67 h.
Take `O=C(NS(=O)(=O)C1CC1)[C@@H]1C[C@H](N2CCCCc3ccccc32)CN1C(=O)C(c1ccccc1)c1ccccc1` [Compound 43, (2S,4S)—N-(Cyclopropylsulfonyl)-1-(2,2-diphenylacetyl)-4-(2,3,4,5-tetrahydro-1H-benzo[b]azepin-1-yl)pyrrolidine-2-carboxamide]: the Ki on human AT2 receptor is 8.6 nM.
As for `COc1ccc2c(c1)CCCCN2[C@H]1C[C@@H](C(=O)O)N(C(=O)C(c2ccccc2)c2ccccc2)C1` [Compound 4, (2S,4S)-1-(2,2-Diphenylacetyl)-4-(7-methoxy-2,3,4,5-tetrahydro-1H-benzo[b]azepin-1-yl)pyrrolidine-2-carboxylic acid], the Ki at human AT2 receptor came out at 8.8 nM.
On to `O=C(O)[C@@H]1C[C@H](N2CCCCc3cc(Cl)ccc32)CN1C(=O)C(c1ccccc1)c1ccccc1` [Compound 6, (2S,4S)-4-(7-Chloro-2,3,4,5-tetrahydro-1H-benzo[b]azepin-1-yl)-1-(2,2-diphenylacetyl)pyrrolidine-2-carboxylic acid], for which the Ki at human AT2 receptor was determined as 22.8 nM.
